Reference: the NIST ThermoML archive (doi:10.1016/j.jct.2015.08.036)

Legend:
[1] = xn = mol fraction of the nth substance listed; conditions: 100 kPa, Liquid, x2 = 0.25; for electrical conductivity: Alternating current cell with electrodes; for viscosity: Capillary tube (Ostwald / Ubbelohde) method; for mass density: Pycnometric method
[2] = 101.33 kPa, Liquid; for viscosity: Capillary tube (Ostwald / Ubbelohde) method; for mass density: Pycnometric method

CC(N)=O [ethanamide] + N#C[S-].[K+]
[1]
Conditions	electrical conductivity [S/m]	mass density [kg/m3]	viscosity [mPa·s]
298.15 K	0.117	1197.1	190.16
303.15 K	0.205	1193.7	127.31
308.15 K	0.311	1190.5	88.81
313.15 K	0.429	1187.7	63.77
318.15 K	0.574	1184.5	48.11

CCO [ethanol]
[2]
Conditions	mass density [kg/m3]	viscosity [mPa·s]
298.15 K	785.2	1.096
303.15 K	781	1.003
308.15 K	776.7	0.914
313.15 K	772.3	0.834
318.15 K	766.3	0.764
